Tests used:
[1] = system: SH-SY5Y cells; experiment: Transwell co-culture assay, SH-SY5Y cell viability by MTT; format: cell-based
From the text: In this and the following examples, human neuroblastoma cell line SH-SY5Y (a cell model of dopaminergic neurons for Parkinson's disease research) that was damaged by 6-hydroxydopamine (6-OHDA, i.e., 2,4,5-trihydroxyphenethylamine)-induced oxidative stress was used to assess the effects of GA on the homing ability of MSCs and the neuroprotective effects of GA pre-treated MSCs and the exosomes derived therefrom. SH-SY5Y cells were obtained from the American Type Culture Collection (ATCC; Manassas, Va., USA). The SH-SY5Y cells were cultured in a humidified incubator at 37° C. with 5% CO2. DMEM (Life Technologies, USA) supplemented with 10% FBS (Hyclone, Thermo Fisher Scientific, USA) and 1% penicillin-streptomycin (Gibco, Thermo Fisher Scientific, USA) was used for culturing of the SH-SY5Y cells.
To determine whether GA can promote MSCs to rescue nerve cell death, transwell co-culture assay was performed where WJMSCs (2×10^4 cells) pre-treated with 0, 20, 40, or 80 μM GA for 24 hours were placed in the upper chamber of a transwell insert, and SH-SY5Y cells (3×10^4 cells) treated with 100 μM 6-OHDA were seeded in the bottom well of the transwell plate. After co-culture of the cells at 37° C. for 24 hours, the SH-SY5Y cell viability was determined by MTT assay. […]

[2] = system: SH-SY5Y cells; experiment: Western blotting of apoptosis-related, anti-apoptotic and OXPHOS proteins in 6-OHDA-stimulated SH-SY5Y cells; format: cell-based, human; settings: FIG. 5C
Description: To further investigate the molecular events associated with the anti-apoptotic effects of GA pre-treated MSC-derived exosomes, the expression of apoptosis-related and anti-apoptotic proteins in 6-OHDA-stimulated SH-SY5Y cells was measured using western blotting. The damaged SH-SY5Y cells were treated with exosomes isolated either from GA pre-treated WJMSCs (80 μM GA for 24 hours) or untreated WJMSCs.
Moreover, the expression of mitochondrial proteins involved in oxidative phosphorylation (OXPHOS), including ATP5A, UQCRC2, MTCO1, SDHB, and NDUFB8, was examined by western blotting.

[3] = system: SH-SY5Y cells; experiment: Autophagic flux in SH-SY5Y cells by LC3B immunofluorescence and western blotting; format: cell-based, human
Description: SH-SY5Y cells under 6-OHDA stimulation were treated with exosomes isolated either from GA pre-treated WJMSCs (80 μM GA for 24 hours) or untreated WJMSCs. For immunofluorescence staining, the treated cells were fixed in 4% PFA, incubated with an anti-LC3B primary antibody followed by a fluorophore-conjugated secondary antibody, and stained with 4′,6-diamidino-2-phenylindole (DAPI). The SH-SY5Y cells were then visualized by a fluorescence microscope (Olympus).

Compound: NCCc1cc(O)c(O)cc1O [6-OHDA, 2,4,5-trihydroxyphenethylamine]
- SH-SY5Y cell viability, effect of 6-OHDA ([1]; 100 μM 6-OHDA, MTT, FIG. 3A): decreased SH-SY5Y cell viability
- expression of mitochondrial OXPHOS proteins (ATP5A, UQCRC2, MTCO1, SDHB, NDUFB8) [2]: downregulated the expression of the OXPHOS proteins
- LC3 puncta (autophagosome formation) in SH-SY5Y cells ([3]; immunofluorescence, anti-LC3B, FIG. 6A): abundant
- autophagy-related protein expression (Beclin-1, LC3B, p62) in SH-SY5Y cells ([3]; western blotting, FIG. 6B): increased Beclin-1 and LC3B expression but decreased p62 protein expression

Compound: O=C(/C=C/c1ccc(/C=C/C(=O)Nc2ccc(C3=NCCN3)cc2)cc1)Nc1ccc(C2=NCCN2)cc1 [GW4869]
- protective effect of the GA pre-treated WJMSCs on SH-SY5Y viability in the presence of GW4869 ([1]; co-culture assay with exosome generation inhibitor, FIG. 3B): suppressed
